According to patent publication US10206937B2, “Boronic acid derivatives and therapeutic uses thereof” (Qpex Biopharma, Inc., priority 2014, dated 2019):

Test system: strains of Enterobacteriaceae producing various carbapenemases (class A, D and B; 169 strains)
Experiment: Meropenem or tebipenem potentiation by Compounds 97 or 62 (MIC)
Type: cell-based
Procedure: The largest panel of clinical isolates expressing class A, D and B carbapenemases alone or in combination with other beta-lactamases (169 strains) was used to evaluate carbapenem potentiation activity of Compounds 97 and 62. MIC for meropenem and tebipenem of these strains were determined either alone or in the presence of Compounds 97 or 62, respectively, at a fixed concentration of 8 μg/ml in the growth media.

C[C@@H](O)[C@H]1C(=O)N2C(C(=O)O)=C(SC3CN(C4=NCCS4)C3)[C@H](C)[C@H]12 [T] was tested, and the “Tebipenem MIC alone (T)” value (CF1022 Citrobacter freundii SHV-12(2be), TEM-OSBL(2b), IMP-8) was “Y (MIC of 1 μg/mL to 10 μg/mL)”, the “Tebipenem MIC alone (T)” value (CF1023 Citrobacter freundii SHV-12(2be), TEM-OSBL(2b), CTX-M-3, CMY-34, NDM-1) was “Z (MIC of greater than 10 μg/mL)” and the “Tebipenem MIC alone (T)” value (EC1061 Escherichia coli NDM-1, CMY-6) was “Z (MIC of greater than 10 μg/mL)”. For the same compound, the “Tebipenem MIC alone (T)” value (EC1069 Escherichia coli CTX-M-27, NDM-1) was “Z (MIC of greater than 10 μg/mL)”, the “Tebipenem MIC alone (T)” value (EC1070 Escherichia coli TEM-OSBL(2b), CMY-42, NDM-5) was “Z (MIC of greater than 10 μg/mL)” and the “Tebipenem MIC alone (T)” value (EC1072 Escherichia coli CTX-M-3, NDM-1) was “Z (MIC of greater than 10 μg/mL)”. The “Tebipenem MIC alone (T)” value (ECL1045 Enterobacter cloacae VIM-1) was “Y (MIC of 1 μg/mL to 10 μg/mL)”, the “Tebipenem MIC alone (T)” value (ECL1055 Enterobacter cloacae KPC-3, TEM) was “Z (MIC of greater than 10 μg/mL)” and the “Tebipenem MIC alone (T)” value (ECL1057 Enterobacter cloacae NDM-1, TEM-1, CTX-M-15) was “Z (MIC of greater than 10 μg/mL)”. The “Tebipenem MIC alone (T)” value (ECL1084 Enterobacter cloacae CTX-M-15, ACT-16, NDM-1) was “Z (MIC of greater than 10 μg/mL)”, the “Tebipenem MIC alone (T)” value (ECL1085 Enterobacter cloacae SHV-31(2be), TEM-1(2b), CTX-M-15, NDM-1) was “Z (MIC of greater than 10 μg/mL)” and the “Tebipenem MIC alone (T)” value (ECL1087 Enterobacter cloacae VIM-1) was “Y (MIC of 1 μg/mL to 10 μg/mL)”. The “Tebipenem MIC alone (T)” value (ECL1090 Enterobacter cloacae TEM-1(2b), CTX-M-22, ACT-type, IMP-8) was “Y (MIC of 1 μg/mL to 10 μg/mL)”, the “Tebipenem MIC alone (T)” value (ECL1092 Enterobacter cloacae TEM-OSBL(2b), ACT-32, VIM-1) was “Y (MIC of 1 μg/mL to 10 μg/mL)” and the “Tebipenem MIC alone (T)” value (ECL1093 Enterobacter cloacae TEM-OSBL(2b), ACT-32, VIM-1) was “Y (MIC of 1 μg/mL to 10 μg/mL)”. For the same compound, the “Tebipenem MIC alone (T)” value (ECL1094 Enterobacter cloacae VIM-1) was “Z (MIC of greater than 10 μg/mL)”, the “Tebipenem MIC alone (T)” value (ECL1095 Enterobacter cloacae SHV-12(2be), TEM-OSBL(2b), CMY-4, ACT-16, VIM-4, OXA-48(c)) was “Z (MIC of greater than 10 μg/mL)” and the “Tebipenem MIC alone (T)” value (ECL1096 Enterobacter cloacae CMY-4, VIM-4, OXA-48(c)) was “Z (MIC of greater than 10 μg/mL)”. The “Tebipenem MIC alone (T)” value (ECL1097 Enterobacter cloacae SHV-31(2be), TEM-OSBL(2b), CTX-M-15, ACT-31, NDM-1) was “Z (MIC of greater than 10 μg/mL)”, the “Tebipenem MIC alone (T)” value (ECL1098 Enterobacter cloacae TEM-OSBL(2b), DHA-1, ACT-16, NDM-1) was “Z (MIC of greater than 10 μg/mL)” and the “Tebipenem MIC alone (T)” value (KP1054 Klebsiella pneumoniae VIM-1, SHV-11) was “Z (MIC of greater than 10 μg/mL)”. The “Tebipenem MIC alone (T)” value (KP1059 Klebsiella pneumoniae VIM-1, SHV-11) was “Z (MIC of greater than 10 μg/mL)”, the “Tebipenem MIC alone (T)” value (KP1061 Klebsiella pneumoniae KPC-3, TEM-1, SHV-11) was “Z (MIC of greater than 10 μg/mL)” and the “Tebipenem MIC alone (T)” value (KP1064 Klebsiella pneumoniae KPC-2, TEM-1, SHV-11) was “Z (MIC of greater than 10 μg/mL)”. The “Tebipenem MIC alone (T)” value (KP1065 Klebsiella pneumoniae VIM-1, SHV-11) was “Y (MIC of 1 μg/mL to 10 μg/mL)”, the “Tebipenem MIC alone (T)” value (KP1070 Klebsiella pneumoniae KPC-2, SHV-11, TEM-1) was “Z (MIC of greater than 10 μg/mL)” and the “Tebipenem MIC alone (T)” value (KP1074 Klebsiella pneumoniae KPC-3, SHV-11, TEM) was “Z (MIC of greater than 10 μg/mL)”. For the same compound, the “Tebipenem MIC alone (T)” value (KP1081 Klebsiella pneumoniae NDM-1, TEM-1, SHV-11, CMY-6, CTX-M-15) was “Z (MIC of greater than 10 μg/mL)”, the “Tebipenem MIC alone (T)” value (KP1158 Klebsiella pneumoniae KPC-2, VIM-1) was “Z (MIC of greater than 10 μg/mL)” and the “Tebipenem MIC alone (T)” value (KP1159 Klebsiella pneumoniae SHV-1(2b), CTX-M-15, IMP-4) was “Y (MIC of 1 μg/mL to 10 μg/mL)”. For the same compound, the “Tebipenem MIC alone (T)” value (KP1160 Klebsiella pneumoniae SHV-28(2be), CTX-M-15, IMP-26) was “Y (MIC of 1 μg/mL to 10 μg/mL)”, the “Tebipenem MIC alone (T)” value (KP1161 Klebsiella pneumoniae NDM-1) was “Z (MIC of greater than 10 μg/mL)” and the “Tebipenem MIC alone (T)” value (KP1162 Klebsiella pneumoniae SHV-1(2b), CTX-M-15, IMP-4) was “Z (MIC of greater than 10 μg/mL)”. The “Tebipenem MIC alone (T)” value (KP1163 Klebsiella pneumoniae SHV-11(2b), MOX-1, KPC-2, VIM-1) was “Z (MIC of greater than 10 μg/mL)”, the “Tebipenem MIC alone (T)” value (KP1164 Klebsiella pneumoniae SHV-12(2be), VIM-1) was “Z (MIC of greater than 10 μg/mL)” and the “Tebipenem MIC alone (T)” value (KP1165 Klebsiella pneumoniae SHV-11(2b), CTX-M-15, VIM-27) was “Z (MIC of greater than 10 μg/mL)”. For the same compound, the “Tebipenem MIC alone (T)” value (KP1166 Klebsiella pneumoniae SHV-5(2be), VIM-26) was “Z (MIC of greater than 10 μg/mL)”, the “Tebipenem MIC alone (T)” value (KP1168 Klebsiella pneumoniae SHV-11(2b), CTX-M-15, VIM-27) was “Z (MIC of greater than 10 μg/mL)” and the “Tebipenem MIC alone (T)” value (KP1169 Klebsiella pneumoniae SHV-11(2b), VIM-1) was “Y (MIC of 1 μg/mL to 10 μg/mL)”. For the same compound, the “Tebipenem MIC alone (T)” value (KP1170 Klebsiella pneumoniae SHV-11(2b), CTX-M-15, NDM-1) was “Z (MIC of greater than 10 μg/mL)”, the “Tebipenem MIC alone (T)” value (KP1172 Klebsiella pneumoniae SHV-31(2be), DHA-1, VIM-1) was “Y (MIC of 1 μg/mL to 10 μg/mL)” and the “Tebipenem MIC alone (T)” value (KP1173 Klebsiella pneumoniae TEM-33(2br), CTX-M-15, IMP-1) was “Y (MIC of 1 μg/mL to 10 μg/mL)”. The “Tebipenem MIC alone (T)” value (KP1174 Klebsiella pneumoniae CTX-M-14, IMP-1) was “Y (MIC of 1 μg/mL to 10 μg/mL)”, the “Tebipenem MIC alone (T)” value (KP1175 Klebsiella pneumoniae SHV-OSBL(2b), VIM-1) was “Z (MIC of greater than 10 μg/mL)” and the “Tebipenem MIC alone (T)” value (KP1176 Klebsiella pneumoniae SHV-12(2be), TEM-OSBL(2b), CMY-13, KPC-2, VIM-1) was “Z (MIC of greater than 10 μg/mL)”. The “Tebipenem MIC alone (T)” value (KP1177 Klebsiella pneumoniae SHV-OSBL(2b), TEM-OSBL(2b), CTX-M-15, NDM-1) was “Z (MIC of greater than 10 μg/mL)”, the “Tebipenem MIC alone (T)” value (KP1178 Klebsiella pneumoniae SHV-OSBL(2b), TEM-OSBL(2b), CTX-M-15, NDM-1) was “Z (MIC of greater than 10 μg/mL)” and the “Tebipenem MIC alone (T)” value (KP1179 Klebsiella pneumoniae SHV-12(2be), TEM-OSBL(2b), CTX-M-15, NDM-7) was “Z (MIC of greater than 10 μg/mL)”. For the same compound, the “Tebipenem MIC alone (T)” value (KP1180 Klebsiella pneumoniae SHV-OSBL(2b), TEM-OSBL(2b), CTX-M-15, DHA-1, IMP-26) was “Y (MIC of 1 μg/mL to 10 μg/mL)” and the “Tebipenem MIC alone (T)” value (KP1181 Klebsiella pneumoniae SHV-OSBL(2b), CTX-M-15, IMP-26) was “Y (MIC of 1 μg/mL to 10 μg/mL)”.
